Reference: publication PMC8801796 (Reproductive Toxicology (Elmsford, N.y.), 2022)
Where two headings read alike, the source gives them in different places.

Columns and labels:
[1] = system: New Zealand White [Hra:(NZW)SPF] rabbits
[2] = system: Wistar Han (Crl:WI[Han]) rats; test: Fertility and early embryonic development study in rats; assay type: in vivo, rat; conditions: for Corpora lutea / Implantation sites / Live embryos / Resorptions: GD 14 uterine examination; for Number of pregnant females: of 20
[3] = as above; assay type: in vivo, rat; conditions: both, Wistar Han, rat, in vivo, oral
[4] = cited from earlier work
monkeys = conditions: doses up to 600 mg/kg/day; cited from earlier work
rats = conditions: doses up to 1000 mg/kg/day; cited from earlier work

## CC(C)(C)[C@H](NC(=O)C(F)(F)F)C(=O)N1C[C@H]2[C@@H]([C@H]1C(=O)N[C@H](C#N)C[C@@H]1CCNC1=O)C2(C)C [NMV, nirmatrelvir]
[1]; 300 mg/kg
  Pre-implantation loss: 9.5 ± 10.2%
[1]; 1000 mg/kg
  Corpora lutea: 9.5 ± 1.7
  Implantation sites: 8.8 ± 1.6
  Maternal Body Weight (GD 29): 3.6 ± 0.2 kg
  Maternal Body Weight Gain (GD 7−29): 0.4 ± 0.1 kg
  Maternal Food Consumption (GD 7−29): 2703.0 ± 514.2 g
  Post-implantation loss: 3.2 ± 4.9%
  Pre-implantation loss: 6.4 ± 11.8%
[1]; 1000 mg/kg, p ≤ 0.01
  Fetal weight (g)/Litter: 37.7 ± 4.4 g
[1]; rabbit, 1000 mg/kg/day
  Mean maternal body weight gains and food consumption versus control: slightly lower than control
[1]; up to 1000 mg/kg/day
  Effects on embryo-fetal viability: no NMV-related effects on embryo-fetal viability
  Effects on external, visceral, or skeletal morphological development: no NMV-related effects on external, visceral, or skeletal morphological development
[2]; 60 mg/kg/day
  Female Food Consumption, Gestation Day 0−14: 19.2 ± 2.1 g/day
  Female Food Consumption, Premating Day 1−14: 15.3 ± 1.2 g/day
  Female Terminal Body Weight: 277.0 ± 24.1 g
  Male Food Consumption, Mating Day 15−19: 19.3 ± 2.8 g/day
  Male Food Consumption, Premating Day 1−14: 22.0 ± 1.1 g/day
  Male Terminal Body Weight: 409.9 ± 22.7 g
  Mean no. of estrous cycles: 2.7 ± 0.5
  Postimplantation loss: 5.3 ± 5.7%
  Precoital interval: 3.6 ± 3.5 days
  Preimplantation loss: 9.7 ± 8.1%
  Corpora lutea: 13.8 ± 1.3
  Implantation sites: 12.5 ± 1.4
  Live embryos: 11.8 ± 1.4
  Resorptions: 0.7 ± 0.7
  Number of pregnant females: 19
[2]; 200 mg/kg/day
  Female Food Consumption, Gestation Day 0−14: 19.0 ± 2.2 g/day
  Female Food Consumption, Premating Day 1−14: 14.8 ± 0.8 g/day
  Female Terminal Body Weight: 272.0 ± 13.3 g
  Male Food Consumption, Mating Day 15−19: 18.0 ± 3.1 g/day
  Male Food Consumption, Premating Day 1−14: 23.0 ± 1.2 g/day
  Male Terminal Body Weight: 411.6 ± 22.2 g
  Mean no. of estrous cycles: 2.7 ± 0.5
  Postimplantation loss: 9.5 ± 12.8%
  Precoital interval: 3.0 ± 2.2 days
  Preimplantation loss: 11.0 ± 18.4%
  Corpora lutea: 14.1 ± 1.7
  Implantation sites: 12.6 ± 3.0
  Live embryos: 11.5 ± 3.2
  Resorptions: 1.1 ± 1.6
  Number of pregnant females: 18
[2]; 1000 mg/kg/day
  Female Food Consumption, Gestation Day 0−14: 19.0 ± 1.6 g/day
  Female Food Consumption, Premating Day 1−14: 14.7 ± 1.0 g/day
  Female Terminal Body Weight: 277.8 ± 14.1 g
  Male Food Consumption, Mating Day 15−19: 18.3 ± 3.2 g/day
  Male Terminal Body Weight: 408.9 ± 19.7 g
  Mean no. of estrous cycles: 2.6 ± 0.5
  Postimplantation loss: 10.6 ± 11.9%
  Precoital interval: 3.2 ± 2.9 days
  Preimplantation loss: 16.9 ± 22.8%
  Corpora lutea: 12.7 ± 1.6
  Implantation sites: 10.5 ± 3.1
  Live embryos: 9.6 ± 3.2
  Resorptions: 1.0 ± 0.8
  Number of pregnant females: 20
[2]; 1000 mg/kg/day, p ≤ 0.05
  Male Food Consumption, Premating Day 1−14: 20.9 ± 0.9 g/day
[2]; up to 1000 mg/kg/day
  Effects on male or female fertility: no NMV-related effects on male or female fertility
  Systemic toxicity in males and females: no evidence of systemic toxicity
[3]
  NOAEL: 1000 mg/kg/day
[4]
  Genetic toxicity: lack of genetic toxicity
monkeys
  Adverse findings in 2-week general toxicology study: lack of adverse findings
rats
  Adverse findings in 2-week general toxicology study: lack of adverse findings
